Counter-ions that a name gives are not always drawn.
Assays:
[1] = Cell viability assay SH-SY5Y (MTT); format: cell-based; conditions: human, SH-SY5Y cells
Procedure: Briefly, 10.000 BV-2 cells/well in 100 μL of culture medium were seeded into 96-well plates (transparent plate, clear bottom; Costar, Corning Inc.) and incubated overnight at 37 °C in 5% CO2. Stock solutions of the drug were preparate in DMSO, keeping it concentration <1% in the experiments. […] Stock solutions were prepared just before their use. Control wells with DMSO were used to evaluate the possible cytotoxicity of the solvent. After 72 h incubation, CCK-8 (10 μL) was added to each well, and after 3–4 h of incubation at 37 °C, the absorbance values at λ = 450 nm were determined on the Tecan Infinite 200 microplate reader. The cytotoxicity assay for SH-SY5Y was conducted by seeding cells at a density of 40.000 cells/well for 24 h in 96-well plate and incubated overnight. […] The plate was incubated for 24 h. After this time, MTT (10 μL) was added to each well, and after 3–4 h of incubation at 37 °C, the absorbance values at λ = 540 nm were determined on the Tecan Infinite 200 microplate reader.
Data were plotted as % cell viability, normalized vs untreated cells by using GraphPad Prism software version 7.05. Values are expressed as the mean ± SEM of at least three independent experiments. […]

[2] = in vivo; cited from earlier work
[3] = Caco-2 monolayer drug transport (in vitro BBB model); format: in vitro ADME; conditions: human
Procedure: The preparation of the Caco-2 cell monolayer as an in vitro BBB model was performed as follows: Caco-2 cells were seeded at a density of 10.000 cells per well on a Millicell 96-well cell culture plate. The culture medium was replaced every 48 h. The formation of the monolayer was monitored by measuring the transepithelial electrical resistance (TEER) using an epithelial voltohmmeter (Millicell-ERS). After 21 days of culture, the Caco-2 cell monolayers were used for permeability experiments. All TEER values measured immediately before the experiments were above 300 Ω·cm^2, confirming the integrity of the monolayer.
Drug transport experiments were carried out following the previously published protocol. Briefly, after 21 days of culture, the medium was removed, and the cells were washed twice with Hank’s Balanced Salt Solution (HBSS) to eliminate any residual culture medium. Subsequently, the wells were refilled with HBSS and incubated at 37 °C for 30 min. After incubation, the HBSS was removed, and solutions containing the compound were added either to the filter well (apical side) or to the receiver plate (basolateral side), while HBSS without the compound was added to the corresponding opposite side. The final concentration of the compounds was 10^–4 M. The plates were then incubated at 37 °C for 2 h. At the end of the incubation period, the samples from both compartments were collected and analyzed by UV–vis spectroscopy. The apparent permeability coefficient (Papp), expressed in nm·s^–1, was calculated using the following equation: 1 Papp=[VA/(area×time)]×([drug]acceptor/[drug]receptor) where VA is the volume (mL) in the acceptor well, area is the surface area of the membrane (0.11 cm^2 of the well), time is the total transport time (7200 s), and [drug] is drug concentration measured by UV–vis spectroscopy.

CC(=O)N(O)CCCCCNC(=O)CCC(=O)N(O)CCCCCNC(=O)CCC(=O)N(O)CCCCCN [DFO, Deferoxamine mesylate]
viability at 24 h, 100 µM [1]: ~100%
Plasma half-life [2]: 20 to 30 min
Papp A→B at 2 h ([3]; apical-to-basolateral, 10^–4 M, 2 h, 37 °C): 76.1 ×10⁻⁶ cm/s
Papp B→A at 2 h ([3]; basolateral-to-apical, 10^–4 M, 2 h, 37 °C): 162 ×10⁻⁶ cm/s
efflux ratio at 2 h ([3]; read-out: BA/AB permeability ratio): 2.13
